In data set [1] the test system is Hepatitis B virus. Put plainly: Antiviral activity against lamivudine-resistant hepatitis B virus harboring reverse transcriptase M204I mutant infected in human Huh7 cells assessed as reduction in secreted DNA levels measured on day 7 by real-time PCR analysis. It counts as functional, organism-based. Particulars: Huh-7, 168 h.
Data set [2] concerns Hepatitis B virus. Nature of the data set: Antiviral activity against lamivudine-resistant wild type hepatitis B virus infected in human Huh7 cells assessed as reduction in secreted DNA levels measured on day 7 by real-time PCR analysis. Format: functional, organism-based. To be noted: Huh-7, 168 h.
Data set [3] concerns Hepatitis B virus. Nature of the data set: Antiviral activity against hepatitis B virus infected in human HepG2.215 cells assessed as reduction in viral DNA replication measured on day 7 by real time PCR analysis. Format: functional, organism-based. To be noted: HepG2.2.15, 168 h.
Data set [4] has as its system Hepatitis B virus. Put plainly: Antiviral activity against lamivudine-resistant wild type hepatitis B virus infected in human Huh7 cells assessed as reduction in intracellular DNA levels measured on day 7 by real-time PCR analysis. It counts as functional, organism-based. To be noted: Huh-7, 168 h.
Data set [5] can be described thus: Cytotoxicity in human HepG2.215 cells assessed as reduction in cell viability after 5 days by CCK8 assay. Particulars: HepG2.2.15 cells. Format: cell-based, HepG2 2.2.15.
Data set [6] relates to Hepatitis B virus. Put plainly: Antiviral activity against lamivudine-resistant hepatitis B virus harboring reverse transcriptase M204I mutant infected in human Huh7 cells assessed as reduction in intracellular DNA levels measured on day 7 by real-time PCR analysis. To be noted: Huh-7, 168 h. Format: functional, organism-based.
For data set [7], the system named is Hepatitis B virus. Put plainly: Antiviral activity against lamivudine-resistant hepatitis B virus harboring reverse transcriptase M204I/V173L double mutant infected in human Huh7 cells assessed as reduction in secreted DNA levels measured on day 7 by real-time PCR analysis. Particulars: Huh-7, 168 h. It counts as functional, organism-based.
The test system of data set [8] is Hepatitis B virus. Nature of the data set: Antiviral activity against lamivudine-resistant hepatitis B virus harboring reverse transcriptase M204I/V173L double mutant infected in human Huh7 cells assessed as reduction in intracellular DNA levels measured on day 7 by real-time PCR analysis. It counts as functional, organism-based. To be noted: Huh-7, 168 h.

This note sets out measurements from ChEMBL document CHEMBL4177524, “Discovery of hepatitis B virus capsid assembly inhibitors leading to a heteroaryldihydropyrimidine based clinical candidate (GLS4)” (Bioorg Med Chem, 2017).

Each structure is given as a SMILES string. Bounds are passed on as bounds.

For `Nc1ccn([C@@H]2CS[C@H](CO)O2)c(=O)n1` [LAMIVUDINE], the EC50 in data set [1] is more than 20 µM; in data set [2], 0.055 µM; in data set [3], 0.1 µM; in data set [4], 0.237 µM; in data set [6], more than 20 µM; in data set [7] it was more than 20 µM. Besides, in data set [8], the EC50 is more than 20 µM. In addition, in data set [3], the EC90 came out at 2 µM. The CC50 at 120 h in data set [5] is 1020 µM.
On to `Nc1ncnc2c1ncn2CCOCP(=O)(O)O` [ADEFOVIR], for which, in data set [5], the CC50 at 120 h amounted to 200 µM.
